Reference: patent US11166460B2, “α-amino acrylate microbicide, and preparation method therefor and uses thereof” (priority 2017, dated 2021)
≈ marks a conversion by molar mass, not a printed value. Counter-ions that a name gives are not always drawn. Like-named read-outs stand apart in the source and are kept apart here.

Key:
[1] = system: tobacco mosaic virus (TMV); experiment: Anti-TMV curative activity (treatment mode), live friction inoculation on tobacco seedlings; type: in vivo; conditions: for inhibition at 100 µg/mL: Tobacco mosaic virus
[2] = system: tobacco mosaic virus (TMV); experiment: Anti-TMV inactivation activity (inactivation mode), compound mixed with TMV before inoculation of tobacco leaves; type: in vivo; conditions: for inhibition at 100 µg/mL: Tobacco mosaic virus, read-out: Anti-TMV activity, Inactivation effect (inhibition)
[3] = system: tobacco mosaic virus (TMV); experiment: Anti-TMV protective activity (protection mode), live friction inoculation on tobacco seedlings; type: in vivo; conditions: for inhibition at 100 µg/mL: Tobacco mosaic virus, read-out: Anti-TMV activity, Protection effect (inhibition)
[4] = system: tobacco mosaic virus (TMV); experiment: Anti-TMV inducing activity (induction mode), tobacco seedlings; type: in vivo; conditions: for inhibition at 100 µg/mL: Tobacco mosaic virus
Alternaria solani = experiment: Fungicidal activity, fungi growth rate method, AS; type: cell-based; conditions: 50 μg/mL; for inhibition at 50 µg/mL: Alternaria solani
Botrytis cinerea = experiment: Fungicidal activity, fungi growth rate method, BC; type: cell-based; conditions: 50 μg/mL; for inhibition at 50 µg/mL: Botrytis cinerea
Cercospora arachidicola = experiment: Fungicidal activity, fungi growth rate method, CA; type: cell-based; conditions: 50 μg/mL; for inhibition at 50 µg/mL: Mycosphaerella arachidis
wheat Gibberella zeae = experiment: microbe, parasite or virus in culture; type: cell-based; conditions: for inhibition at 50 µg/mL: Fusarium graminearum
[5] = system: Phytophthora infestans (Mont) de Bary; experiment: microbe, parasite or virus in culture; type: cell-based; conditions: for inhibition at 50 µg/mL: Phytophthora infestans
Physalospora piricola = experiment: Fungicidal activity, fungi growth rate method, PP; type: cell-based; conditions: 50 μg/mL
Pellicularia sasakii = experiment: Fungicidal activity, fungi growth rate method, PS; type: cell-based; conditions: 50 μg/mL
Rhizoctonia cerealis = experiment: Fungicidal activity, fungi growth rate method, RC; type: cell-based; conditions: 50 μg/mL; for inhibition at 50 µg/mL: Ceratobasidium cereale
Sclerotinia sclerotiorum = experiment: microbe, parasite or virus in culture; type: cell-based
[6] = 100 μg/mL, tobacco seedlings, checked on seventh day
[7] = 100 μg/mL, tobacco leaves, checked on seventh day
[8] = read-out: Anti-TMV activity, Curative effect (inhibition), 100 μg/mL, tobacco seedlings, checked on seventh day
[9] = read-out: Anti-TMV activity, Induction effect (inhibition), 100 μg/mL, tobacco seedlings
[10] = read-out: Fungicidal activity, inhibition, AS
[11] = read-out: Fungicidal activity, inhibition, BC
[12] = read-out: Fungicidal activity, inhibition, CA
[13] = read-out: Fungicidal activity, inhibition, GZ
[14] = read-out: Fungicidal activity, inhibition, PI
[15] = read-out: Fungicidal activity, inhibition, PP
[16] = read-out: Fungicidal activity, inhibition, PS
[17] = read-out: Fungicidal activity, inhibition, RC
[18] = Sclerotinia sclerotiorum, 50 μg/mL, read-out: Fungicidal activity, inhibition, SS
[19] = read-out: Fungicidal activity (inhibition) against AS: Alternaria solani
[20] = read-out: Fungicidal activity (inhibition) against BC: Botrytis cinerea
[21] = read-out: Fungicidal activity (inhibition) against CA: Cercospora arachidicola
[22] = read-out: Fungicidal activity (inhibition) against GZ: wheat Gibberella zeae
[23] = read-out: Fungicidal activity (inhibition) against PI: Phytophthora infestans (Mont) de Bary
[24] = read-out: Fungicidal activity (inhibition) against PP: Physalospora piricola
[25] = read-out: Fungicidal activity (inhibition) against PS: Pellicularia sasakii
[26] = read-out: Fungicidal activity (inhibition) against RC: Rhizoctonia cerealis
[27] = Sclerotinia sclerotiorum, 50 μg/mL, read-out: Fungicidal activity (inhibition) against SS: Sclerotinia sclerotiorum
[28] = 100 μg/mL, tobacco seedlings, read-out: Anti-TMV activity, Induction effect (inhibition)

SMILES | melting point [°C] | inhibition at 100 µg/mL [1, 8] [%] | inhibition at 100 µg/mL [2] [%] | inhibition at 100 µg/mL [3] [%] | inhibition at 100 µg/mL [4, 9] [%] | inhibition at 50 µg/mL (Alternaria solani; [10]) [%] | inhibition at 50 µg/mL (Botrytis cinerea; [11]) [%] | inhibition at 50 µg/mL (Cercospora arachidicola; [12]) [%] | inhibition at 50 µg/mL (wheat Gibberella zeae; [13]) [%] | inhibition at 50 µg/mL [5, 14] [%] | inhibition at 50 µg/mL (Physalospora piricola; [15]) [%] | inhibition at 50 µg/mL (Pellicularia sasakii; [16]) [%] | inhibition at 50 µg/mL (Rhizoctonia cerealis; [17]) [%] | inhibition at 50 µg/mL (Sclerotinia sclerotiorum; [18]) [%] | inhibition at 50 µg/mL (Alternaria solani; [19]) [%] | inhibition at 50 µg/mL (Botrytis cinerea; [20]) [%] | inhibition at 50 µg/mL (Cercospora arachidicola; [21]) [%] | inhibition at 50 µg/mL (wheat Gibberella zeae; [22]) [%] | inhibition at 50 µg/mL [5, 23] [%] | inhibition at 50 µg/mL (Physalospora piricola; [24]) [%] | further results
O=C(N/C(=C\c1ccccc1)C(=O)N1CCC(O)(c2ccc(Br)cc2)CC1)C1CCNCC1 (as salt: hydrochloride) [Compound 4, (Z)-N-[1-[[4-(4-bromophenyl)-4-hydroxy-1-piperidinyl]carbonyl]-2-phenylethenyl]-1-piperidine-4-carboxamide-hydrochloride] | 147 to 149 |  |  |  |  |  |  |  |  |  |  |  |  |  |  |  |  |  |  |  | 
CSC(=O)c1cccc2nnsc12 [BTH, Acibenzolar-S-Methyl, reference compound] |  |  |  |  |  |  |  |  |  |  |  |  |  |  |  |  |  |  |  |  | Anti-TMV activity, Curative effect (inhibition) [1, 6]: 50.00%; Anti-TMV activity, Inactivation effect (inhibition) [2, 7]: 63%; Anti-TMV activity, Protection effect (inhibition) [3, 6]: 76%; Anti-TMV activity, Induction effect (inhibition) ([4]; 100 μg/mL, tobacco seedlings): 96%
O=C(N/C(=C\c1ccccc1)C(=O)N1CCC(O)(c2ccc(Br)cc2)CC1)C1CCNCC1 [Compound 4, (Z)-N-[1-[[4-(4-bromophenyl)-4-hydroxy-1-piperidinyl]carbonyl]-2-phenylethenyl]-1-piperidine-4-carboxamide-hydrochloride] |  | 0 | 3 | 1 | 1 | 21 | 24 | 6 | 43 | 11 | 12 | 9 | 23 | 47 |  |  |  |  |  |  | 
O=C(N/C(=C\c1cccs1)C(=O)N1CCC(O)(c2ccc(Br)cc2)CC1)c1ccccc1 [Compound 24, (Z)-N-[1-[[4-(4-bromophenyl)-4-hydroxy-1-piperidinyl]carbonyl]-2-(2-thienyl)ethenyl]benzamide] | 180 to 182 | 0 | 1 | 36 |  | 15 | 14 | 16 | 23 | 17 | 10 | 18 | 19 | 67 | < 30 | ≤ 20 | < 25 | < 45 | < 25 | < 20 | inhibition at 50 µg/mL (Pellicularia sasakii; [25]): < 30%; inhibition at 50 µg/mL (Rhizoctonia cerealis; [26]): < 20%; inhibition at 50 µg/mL (Sclerotinia sclerotiorum; [27]): 67%
O=C(N/C(=C\c1ccco1)C(=O)N1CCC(O)(c2ccc(Br)cc2)CC1)c1ccccc1 [Compound 25, (Z)-N-[1-[[4-(4-bromophenyl)-4-hydroxy-1-piperidinyl]carbonyl]-2-(2-furanyl)ethenyl]benzamide] | 134 to 135 | 55 | 31 | 46 |  | 16 | 20 | 22 | 31 | 10 | 15 | 27 | 36 | 100 | < 30 | ≤ 20 | < 25 | < 45 | < 25 | < 20 | inhibition at 50 µg/mL (Pellicularia sasakii; [25]): < 30%; inhibition at 50 µg/mL (Rhizoctonia cerealis; [26]): 36%; EC90 (Sclerotinia sclerotiorum; Sclerotinia sclerotiorum, read-out: EC90 against S. sclerotiorum in vitro): 221 µg/mL (≈ 446 µM); inhibition at 50 µg/mL (Sclerotinia sclerotiorum; [27]): 100%
O=C(N/C(=C\c1ccccc1)C(=O)N1CCC(O)(c2ccc(Br)cc2)CC1)c1ccccc1 [Compound 76, (Z)-N-[1-[[4-(4-bromophenyl)-4-hydroxy-1-piperidinyl]carbonyl]-2-phenylethenyl]benzamide, reference compound] |  | 0 | 29 | 38 | 15 | 14 | 18 | 24 | 43 | 24 | 15 | 14 | 15 | 50 | 14 | 18 | 24 | 43 | 24 | 15 | inhibition at 50 µg/mL (Pellicularia sasakii; [25]): 14%; inhibition at 50 µg/mL (Rhizoctonia cerealis; [26]): 15%; inhibition at 50 µg/mL (Sclerotinia sclerotiorum; [27]): 50%
CNCC(=O)N[C@@H](CO)C(=O)N[C@H]1[C@H](O)[C@@H](O)[C@H](n2ccc(N)nc2=O)O[C@@H]1C(N)=O [Ningnanmycin, ningnanmycin, reference compound] |  | 63 | 58 | 71 | 82 |  |  |  |  |  |  |  |  |  |  |  |  |  |  |  | Anti-TMV activity, Curative effect (inhibition) [1, 6]: 62%
NC(=O)c1ncn([C@@H]2O[C@H](CO)[C@@H](O)[C@H]2O)n1 [Ribavirin, ribavirin, reference compound] |  | 28 |  | 58 |  |  |  |  |  |  |  |  |  |  |  |  |  |  |  |  | inhibition at 100 µg/mL [2, 7]: 81%; inhibition at 100 µg/mL [4, 28]: 4%
Cc1ccc(NC(=O)c2snnc2C)cc1Cl [TDL, Tiadinil, reference compound] |  |  |  |  |  |  |  |  |  |  |  |  |  |  |  |  |  |  |  |  | inhibition at 100 µg/mL ([1]; 100 μg/mL, tobacco seedlings, checked on seventh day, read-out: Anti-TMV activity, Curative effect (inhibition)): 49%; inhibition at 100 µg/mL [2, 7]: 55%; inhibition at 100 µg/mL [3, 6]: 32%; inhibition at 100 µg/mL [4, 28]: 73%
CO/C=C(/C(=O)OC)c1ccccc1Oc1cc(Oc2ccccc2C#N)ncn1 [azoxystrobin, reference compound] |  |  |  |  |  |  |  |  |  |  |  |  |  |  |  |  |  |  |  |  | Fungicidal activity (inhibition) against AS: Alternaria solani (Alternaria solani): 79%; Fungicidal activity (inhibition) against BC: Botrytis cinerea (Botrytis cinerea): 78%; Fungicidal activity (inhibition) against CA: Cercospora arachidicola (Cercospora arachidicola): 81%; Fungicidal activity (inhibition) against GZ: wheat Gibberella zeae (wheat Gibberella zeae; 50 μg/mL): 100%; Fungicidal activity (inhibition) against PI: Phytophthora infestans (Mont) de Bary ([5]; 50 μg/mL): 91%; Fungicidal activity (inhibition) against PP: Physalospora piricola (Physalospora piricola): 81%; Fungicidal activity (inhibition) against PS: Pellicularia sasakii (Pellicularia sasakii): 92%; Fungicidal activity (inhibition) against RC: Rhizoctonia cerealis (Rhizoctonia cerealis): 67%; Fungicidal activity, inhibition, SS (Sclerotinia sclerotiorum; 50 μg/mL): 100%
